# Like-named read-outs stand apart in the source and are kept apart here.
# Key:
# [1] = amide bond, 21-membered ring, HATU/NMM, CH3CN, 0.0 °C
# [2] = from CN[C@@H](Cc1ccc2ccccc2c1)C(=O)O[C@H](C)[C@H](NC(=O)OC(C)(C)C)C(=O)N[C@H](C(C)C)[C@@H](O)CC(=O)O[C@H](C(=O)N[C@@H](CC(C)C)C(=O)N1CCC[C@H]1C(=O)O)C(C)C; amide bond; HATU; CH3CN; 5.0 mM; 0.0 °C; 17.0 h
compound,measurement,setting,value
[N-Me-Ala^4]-Tamandarin B macrocycle,"ring closure, isolated yield",[1]; 4.8 mM,48%
[Ser^6]-Tamandarin B macrocycle,"ring closure, isolated yield",[1]; 5.7 mM,89%
[2-Naphthylala^5]-Tamandarin B macrocycle,"ring closure, isolated yield",[1]; 5.0 mM,65%
[Ala^4]-Tamandarin B macrocycle,"ring closure, isolated yield",[1]; 4.6 mM,60%
CC(C)C[C@@H]1NC(=O)[C@H](C(C)C)OC(=O)C[C@H](O)[C@@H](C(C)C)NC(=O)[C@@H](NC(=O)OC(C)(C)C)[C@@H](C)OC(=O)[C@H](Cc2ccc3ccccc3c2)N(C)C(=O)[C@@H]2CCCN2C1=O,"ring closure, yield of all isomers",[2],65%
